Results taken from patent US12036312B2, “Non-aqueous topical compositions comprising a halogenated salicylanilide” (priority 2016, dated 2024).
In brackets after ≈: the same amount, converted by molar mass. Like-named read-outs stand apart in the source and are kept apart here.

Legend:
S. aureus = assay: MIC assay according to CLSI criteria, Example 2, S. aureus strains; assay type: cell-based, Staphylococcus aureus; conditions: Staphylococcus aureus
From the text: Chosen for its relevance regarding bacterial skin infections, the methicillin-resistant S. aureus (MRSA) 01 strain was used as the primary test microorganism. This strain is a community-acquired MRSA clinical isolate of USA 300 type, from a skin abscess.
Two-hundred-four other MRSA and methicillin-sensitive S. aureus strains, and 4 Streptococcus pyogenes strains, were also included in the study. These covered fusidic acid- and mupirocin-resistant strains, these two types of resistance being of clinical relevance.
Strains were conserved in Luria Bertani (LB) Broth (S. aureus) or Brain Heart Infusion (BHI) (S. pyogenes) supplemented with glycerol 15% (v/v) at −80° C., and reactivated by isolation on LB (S. aureus) or BHI (S. pyogenes) agar plates. Strains were cultivated in Mueller Hinton (MH) Broth-cation adjusted (S. aureus) or BHI (S. pyogenes). All strains were cultivated aerobically (microaerobically for S. pyogenes strains) at 37° C.
Bacterial cultures were stopped in their exponential growth phase and plates were inoculated with the approximate concentration of 5×10^5 cells per well. Plates were incubated at 37° C. for 18 hours (S. aureus) or 24 hours (S. pyogenes). Optical density at a wavelength of 600 nm was measured at the end of the incubation time.

P. acnes = assay type: cell-based, Propionibacterium acnes; conditions: for Frequency of mutation/ml: MIC × 4

Molecule `C=C[C@]1(C)C[C@@H](OC(=O)CS[C@@H]2C[C@H]3CC[C@@H](C2)N3C)[C@]2(C)[C@H](C)CC[C@]3(CCC(=O)[C@H]32)[C@@H](C)[C@@H]1O` [Retapamulin, retapamulin] has an MIC (S. aureus; MRSA, strain MRSA 104) of 0.03 µg/mL (≈ 0.0579 µM), an MIC (S. aureus; MRSA, strain MRSA 105) of 0.03 µg/mL (≈ 0.0579 µM) and an MIC (S. aureus; MRSA, strain MRSA 106) of 0.06 µg/mL (≈ 0.116 µM). For the same molecule, the MIC (S. aureus; MRSA, strain MRSA 107) was 0.06 µg/mL (≈ 0.116 µM), the MIC (S. aureus; MRSA, strain MRSA 108) was 0.03 µg/mL (≈ 0.0579 µM) and the MIC (S. aureus; MRSA, strain MRSA 109) was 0.03 µg/mL (≈ 0.0579 µM). The MIC (S. aureus; MRSA, strain MRSA 110) was 0.03 µg/mL (≈ 0.0579 µM), the MIC (S. aureus; MRSA, strain MRSA 111) was 0.03 µg/mL (≈ 0.0579 µM) and the MIC (S. aureus; MRSA, strain MRSA 112) was 0.03 µg/mL (≈ 0.0579 µM). For the same molecule, the MIC (S. aureus; MRSA, strain MRSA 113) was 0.03 µg/mL (≈ 0.0579 µM), the MIC (S. aureus; MSSA, strain MSSA 01) was 0.03 µg/mL (≈ 0.0579 µM) and the MIC (S. aureus; MSSA, strain MSSA 02) was 0.03 µg/mL (≈ 0.0579 µM). For the same molecule, the MIC (S. aureus; NEWMAN, strain Newman) was 0.03 µg/mL (≈ 0.0579 µM), the MIC (S. aureus; strain 9-1862936) was 0.03 µg/mL (≈ 0.0579 µM) and the MIC (S. aureus; strain 9-2625962) was 0.03 µg/mL (≈ 0.0579 µM). The MIC (S. aureus; strain 9-2642158) was 0.06 µg/mL (≈ 0.116 µM), the MIC (S. aureus; strain 9-2955245) was 0.06 µg/mL (≈ 0.116 µM) and the MIC (S. aureus; strain 9-26422166) was 0.03 µg/mL (≈ 0.0579 µM). The MIC (S. aureus; strain 000040C) was 0.03 µg/mL (≈ 0.0579 µM), the MIC (S. aureus; strain 000041C) was 0.03 µg/mL (≈ 0.0579 µM) and the MIC (S. aureus; strain 000274T) was 0.06 µg/mL (≈ 0.116 µM). For the same molecule, the MIC (S. aureus; strain 114660U) was 0.06 µg/mL (≈ 0.116 µM), the MIC (S. aureus; strain 115015T) was 0.06 µg/mL (≈ 0.116 µM) and the MIC (S. aureus; strain 115242C) was 0.03 µg/mL (≈ 0.0579 µM). For the same molecule, the MIC (S. aureus; strain 115263C) was 0.03 µg/mL (≈ 0.0579 µM), the MIC (S. aureus; strain 115268C) was 0.03 µg/mL (≈ 0.0579 µM) and the MIC (S. aureus; strain 115273C) was 0.03 µg/mL (≈ 0.0579 µM). The MIC (S. aureus; strain 115295C) was 0.03 µg/mL (≈ 0.0579 µM), the MIC (S. aureus; strain 115303C) was 0.03 µg/mL (≈ 0.0579 µM) and the MIC (S. aureus; strain 115370U) was 0.06 µg/mL (≈ 0.116 µM). The MIC (S. aureus; strain 115427C) was 0.03 µg/mL (≈ 0.0579 µM), the MIC (S. aureus; strain 115445C) was 0.03 µg/mL (≈ 0.0579 µM) and the MIC (S. aureus; strain 115561C) was 0.03 µg/mL (≈ 0.0579 µM). It also gave an MIC (S. aureus; strain 115584D) of 0.06 µg/mL (≈ 0.116 µM), an MIC (S. aureus; strain 115628T) of 0.03 µg/mL (≈ 0.0579 µM) and an MIC (S. aureus; strain 115690C) of 0.25 µg/mL (≈ 0.483 µM). It also gave an MIC (S. aureus; strain 115691T) of 0.03 µg/mL (≈ 0.0579 µM), an MIC (S. aureus; strain 115740E) of 0.06 µg/mL (≈ 0.116 µM) and an MIC (S. aureus; strain 115810E) of 0.06 µg/mL (≈ 0.116 µM). It also gave an MIC (S. aureus; strain 115903T) of 0.03 µg/mL (≈ 0.0579 µM), an MIC (S. aureus; strain 116122T) of 0.03 µg/mL (≈ 0.0579 µM) and an MIC (S. aureus; strain E5-1029252) of 0.03 µg/mL (≈ 0.0579 µM). It also gave an MIC (S. aureus; strain E5-1029558) of 0.03 µg/mL (≈ 0.0579 µM), an MIC (S. aureus; strain E5-1030440) of 0.06 µg/mL (≈ 0.116 µM) and an MIC (S. aureus; strain E5-1030469) of 0.03 µg/mL (≈ 0.0579 µM). For the same molecule, the MIC (S. aureus; strain E5-1030472) was 0.06 µg/mL (≈ 0.116 µM), the MIC (S. aureus; strain E5-1030482) was 0.02 µg/mL (≈ 0.0386 µM) and the MIC (S. aureus; strain E5-1033076 (first listing, r204)) was 0.03 µg/mL (≈ 0.0579 µM). The MIC (S. aureus; strain E5-1033076 (second listing, r205)) was 0.03 µg/mL (≈ 0.0579 µM), the MIC (S. aureus; strain E5-1033088) was 0.03 µg/mL (≈ 0.0579 µM) and the MIC (S. aureus; strain E5-1033091) was 0.02 µg/mL (≈ 0.0386 µM). The MIC (S. aureus; strain E5-1035277) was 0.03 µg/mL (≈ 0.0579 µM), the MIC (S. aureus; strain E5-1035284) was 0.03 µg/mL (≈ 0.0579 µM) and the MIC (S. aureus; strain E5-1035775) was 0.06 µg/mL (≈ 0.116 µM). It also gave an MIC (S. aureus; strain E5-1035779) of 0.03 µg/mL (≈ 0.0579 µM), an MIC (S. aureus; strain E5-1037958) of 0.06 µg/mL (≈ 0.116 µM) and an MIC (S. aureus; strain E5-1037971) of 0.03 µg/mL (≈ 0.0579 µM). For the same molecule, the MIC (S. aureus; strain E5-1038279) was 0.03 µg/mL (≈ 0.0579 µM), the MIC (S. aureus; strain E5-1038286) was 0.06 µg/mL (≈ 0.116 µM) and the MIC (S. aureus; strain E5-1038294) was 0.03 µg/mL (≈ 0.0579 µM). For the same molecule, the MIC (S. aureus; strain E5-1039684) was 0.06 µg/mL (≈ 0.116 µM), the MIC (S. aureus; strain E5-1039697) was 0.06 µg/mL (≈ 0.116 µM) and the MIC (S. aureus; strain E5-1041977) was 0.03 µg/mL (≈ 0.0579 µM). For the same molecule, the MIC (S. aureus; strain E5-1041979) was 0.03 µg/mL (≈ 0.0579 µM), the MIC (S. aureus; strain E5-1041980) was 0.03 µg/mL (≈ 0.0579 µM) and the MIC (S. aureus; strain E5-1041987) was 0.03 µg/mL (≈ 0.0579 µM). It also gave an MIC (S. aureus; strain E5-1043184) of 0.03 µg/mL (≈ 0.0579 µM), an MIC (S. aureus; strain E5-1043668) of 0.06 µg/mL (≈ 0.116 µM) and an MIC (S. aureus; strain E5-1045179) of 0.06 µg/mL (≈ 0.116 µM). The MIC (S. aureus; strain E5-1046019) was 0.03 µg/mL (≈ 0.0579 µM), the MIC (S. aureus; strain E5-1046020) was 0.06 µg/mL (≈ 0.116 µM) and the MIC (S. aureus; strain E5-1046039) was 0.06 µg/mL (≈ 0.116 µM). It also gave an MIC (S. aureus; strain E5-1046070) of 0.03 µg/mL (≈ 0.0579 µM), an MIC (S. aureus; strain E5-1046074) of 0.06 µg/mL (≈ 0.116 µM) and an MIC (S. aureus; strain E5-1046085) of 0.06 µg/mL (≈ 0.116 µM). The MIC (S. aureus; strain E5-1046096) was 0.06 µg/mL (≈ 0.116 µM), the MIC (S. aureus; strain E5-1046296) was 0.03 µg/mL (≈ 0.0579 µM) and the MIC (S. aureus; strain E5-1046297) was 0.06 µg/mL (≈ 0.116 µM). The MIC (S. aureus; strain E5-1046298) was 0.03 µg/mL (≈ 0.0579 µM), the MIC (S. aureus; strain E5-1046723) was 0.06 µg/mL (≈ 0.116 µM) and the MIC (S. aureus; strain E5-1047585) was 0.03 µg/mL (≈ 0.0579 µM). For the same molecule, the MIC (S. aureus; strain E5-1047606) was 0.03 µg/mL (≈ 0.0579 µM), the MIC (S. aureus; strain E5-1047924) was 0.03 µg/mL (≈ 0.0579 µM) and the MIC (S. aureus; strain E5-1048204) was 0.03 µg/mL (≈ 0.0579 µM). For the same molecule, the MIC (S. aureus; strain E5-1048428) was 0.06 µg/mL (≈ 0.116 µM), the MIC (S. aureus; strain E5-1048654) was 0.06 µg/mL (≈ 0.116 µM) and the MIC (S. aureus; strain E5-1048670) was 0.06 µg/mL (≈ 0.116 µM). For the same molecule, the MIC (S. aureus; strain EEFIC 01) was 0.03 µg/mL (≈ 0.0579 µM), the MIC (S. aureus; strain EEFIC 02) was 0.03 µg/mL (≈ 0.0579 µM) and the MIC (S. aureus; strain K000772) was 0.06 µg/mL (≈ 0.116 µM). For the same molecule, the MIC (S. aureus; strain K000796) was 0.03 µg/mL (≈ 0.0579 µM), the MIC (S. aureus; strain K000863) was 0.03 µg/mL (≈ 0.0579 µM) and the MIC (S. aureus; strain K000864) was 0.03 µg/mL (≈ 0.0579 µM). The MIC (S. aureus; strain K000866) was 0.03 µg/mL (≈ 0.0579 µM), the MIC (S. aureus; strain K115498) was 0.03 µg/mL (≈ 0.0579 µM) and the MIC (S. aureus; strain K115688) was 0.03 µg/mL (≈ 0.0579 µM). It also gave an MIC (S. aureus; strain K115689) of 0.03 µg/mL (≈ 0.0579 µM), an MIC (S. aureus; strain R000019) of 0.06 µg/mL (≈ 0.116 µM) and an MIC (S. aureus; strain R000020) of 0.03 µg/mL (≈ 0.0579 µM). For the same molecule, the MIC (S. aureus; strain R000024) was 0.06 µg/mL (≈ 0.116 µM), the MIC (S. aureus; strain U115579) was 0.06 µg/mL (≈ 0.116 µM) and the “frequency of mutation of resistance” value (P. acnes; P. acnes) was ~1×10^−8. It also gave a Frequency of mutation/ml (P. acnes; P. acnes strain 998) of 2.17e-08 mL⁻¹, a Frequency of mutation/ml (P. acnes; P. acnes strain 1044) of 1.09e-08 mL⁻¹ and a Frequency of mutation/ml (P. acnes; P. acnes strain CSS3023) of 1.46e-08 mL⁻¹. It also gave a Frequency of mutation/ml (P. acnes; P. acnes strain CSS3288) of 1.25e-08 mL⁻¹.
